Like-named read-outs stand apart in the source and are kept apart here. A value given as a limit tells only on which side of the number the result lay.

What all share (assay): Secondary dose-response HTS, Cell Titer Glo
Type in all cases: cell-based, human
A general note: Cellular ATP, detected with luciferase, serves as a proxy for viable cell number.

One assay relates to MOLM-13. To be noted: secondary high-throughput screen, MOLM-13; for EC50: read-out: average effective concentration, MOLM-13.
Another assay concerns MV4-11. To be noted: secondary high-throughput screen, MV4-11.
The next assay has as its system CHRF288-11. To be noted: secondary high-throughput screen, CHRF288-11; for EC50: Homo sapiens, HTS, read-out: average effective concentration, CHRF288-11.
The test system of another assay is CMK. The conditions noted are these: secondary high-throughput screen, CMK.
For another assay, the system named is CMS. The conditions noted are these: secondary high-throughput screen, CMS; for EC50: Homo sapiens, HTS, read-out: average effective concentration, CMS.
The test system of the next assay is M07e. To be noted: secondary high-throughput screen; for EC50: read-out: average effective concentration, M07e.
A further assay deals with ML2. The conditions noted are these: secondary high-throughput screen, ML-2; for EC50: read-out: average effective concentration, ML-2.
In a further assay the test system is U937. To be noted: secondary high-throughput screen, U937; for EC50: Homo sapiens, U-937, read-out: average effective concentration, U937.

For `COc1cc2c(NC3CCN(C)CC3)nc(N3CCCN(C)CC3)nc2cc1OCCCN(C)C` [UNC0224], the “average effective concentration, MOLM-13” value in the assay on MOLM-13 was “Inactive”. Also, in the assay on MV4-11, the “average effective concentration, MV4-11” value is reported as “Inactive”. Also, in the assay on CHRF288-11, the “average effective concentration, CHRF288-11” value is on record as “Inactive”. In addition, the “average effective concentration, CMK” value in the assay with CMK is recorded as “Inactive”. For the same compound, the “average effective concentration, CMS” value in the assay with CMS is “Inactive”. In addition, the “average effective concentration, M07e” value in the assay on M07e (M07e) was “Inactive”. In addition, the “average effective concentration, ML-2” value in the assay with ML2 was “Inactive”. For the same compound, the “average effective concentration, U937” value in the assay with U937 is on record as “Inactive”.
Take `COc1cc2c(NC3CCN(C)CC3)nc(N3CCCN(C)CC3)nc2cc1OCCOCCN(C)C` [UNC0321]: in the assay with MOLM-13, the “average effective concentration, MOLM-13” value was “Inactive”. Further, the “average effective concentration, MV4-11” value with MV4-11 was “Inactive”. Moreover, the “average effective concentration, CHRF288-11” value in the assay with CHRF288-11 is “Inactive”. Also, the “average effective concentration, CMK” value with CMK is “Inactive”. Besides, the “average effective concentration, CMS” value in the assay with CMS is listed as “Inactive”. In the assay with M07e (M07e), the “average effective concentration, M07e” value is listed as “Inactive”. Further, in the assay with ML2, the “average effective concentration, ML-2” value was “Inactive”. Also, the “average effective concentration, U937” value with U937 was “Inactive”.
Regarding `COc1cc2c(NC3CCN(C(C)C)CC3)nc(C3CCCCC3)nc2cc1OCCCN1CCCC1` [UNC0638 HYDRATE], the EC50 with MOLM-13 (Homo sapiens) was above 10000 nM; with CHRF288-11 it was above 10000 nM; in the assay on CMS, 6000 nM; with M07e (Homo sapiens, M-07e, […]) it was 5000 nM; in the assay with ML2 (Homo sapiens), above 10000 nM; in the assay with U937, 4500 nM. In addition, the “average effective concentration, MV4-11” value in the assay on MV4-11 is “Inactive”. Besides, the “average effective concentration, CMK” value with CMK is listed as “Inactive”.
Take `CC[C@]1(O)C[C@H]2CN(CCc3c([nH]c4ccccc34)[C@@](C(=O)OC)(c3cc4c(cc3OC)N(C=O)[C@H]3[C@@](O)(C(=O)OC)[C@H](OC(C)=O)[C@]5(CC)C=CCN6CC[C@]43[C@@H]65)C2)C1` [VINCRISTINE]: the EC50 was 43 nM in the assay with MOLM-13 (Homo sapiens); 20 nM in the assay on MV4-11 (Homo sapiens, read-out: average effective concentration, MV4-11); 390 nM in the assay with CHRF288-11; above 10000 nM in the assay with CMK (Homo sapiens, read-out: average effective concentration, CMK); 230 nM in the assay on CMS; 1 nM with M07e (Homo sapiens, M-07e, M07e). For the same compound, the values for the EC50 in the assay on ML2 (Homo sapiens) and in the assay with U937 were 8 nM and 35 nM, respectively.
Turning to `CCn1c(=O)c(-c2cc[nH]n2)cc2c(C)nc(N)nc21` [Voxtalisib], the “average effective concentration, MOLM-13” value with MOLM-13 is recorded as “Inactive”. Further, in the assay on MV4-11, the “average effective concentration, MV4-11” value is given as “Inactive”. For the same compound, in the assay with CHRF288-11, the “average effective concentration, CHRF288-11” value is on record as “Inactive”. For the same compound, the “average effective concentration, CMK” value with CMK was “Inactive”. Also, the “average effective concentration, CMS” value with CMS is on record as “Inactive”. For the same compound, in the assay with M07e (M07e), the “average effective concentration, M07e” value is on record as “Inactive”. The “average effective concentration, ML-2” value in the assay with ML2 is given as “Inactive”. Moreover, in the assay with U937, the “average effective concentration, U937” value is reported as “Inactive”.
As to `CN1CCc2c(c3ccccc3n2Cc2ccc(C(=O)NO)cc2)C1` [[…]], in the assay with MOLM-13 (Homo sapiens), the EC50 is above 10000 nM. In addition, the “average effective concentration, MV4-11” value in the assay with MV4-11 is “Inactive”. In addition, in the assay on CHRF288-11, the “average effective concentration, CHRF288-11” value is recorded as “Inactive”. For the same compound, the “average effective concentration, CMK” value in the assay on CMK is “Inactive”. In the assay on CMS, the “average effective concentration, CMS” value is on record as “Inactive”. The “average effective concentration, M07e” value in the assay with M07e ([…]) was “Inactive”. Further, in the assay with ML2, the “average effective concentration, ML-2” value is on record as “Inactive”. Also, the “average effective concentration, U937” value in the assay on U937 is listed as “Inactive”.
As for (-)-NUTLIN-3, the values for the EC50 in the assay on MOLM-13, in the assay with M07e (M07e) and in the assay on ML2 were 940 nM, 160 nM and 4900 nM, respectively. The “average effective concentration, MV4-11” value in the assay on MV4-11 was “Inactive”. For the same compound, the “average effective concentration, CHRF288-11” value in the assay on CHRF288-11 is on record as “Inactive”. Besides, the “average effective concentration, CMK” value in the assay with CMK is listed as “Inactive”. The “average effective concentration, CMS” value in the assay with CMS is on record as “Inactive”. Besides, the “average effective concentration, U937” value in the assay on U937 is “Inactive”.
With ANACARDIC ACID, in the assay with MOLM-13, the “average effective concentration, MOLM-13” value is recorded as “Inactive”. Moreover, the “average effective concentration, MV4-11” value in the assay on MV4-11 was “Inactive”. Also, the “average effective concentration, CHRF288-11” value in the assay on CHRF288-11 was “Inactive”. For the same compound, the “average effective concentration, CMK” value with CMK is reported as “Inactive”. Besides, the “average effective concentration, CMS” value with CMS was “Inactive”. The “average effective concentration, M07e” value in the assay on M07e (M07e) was “Inactive”. The “average effective concentration, ML-2” value in the assay with ML2 was “Inactive”. Besides, in the assay with U937, the “average effective concentration, U937” value is “Inactive”.

The values above are taken from article PMC6522510 (Nature Communications, 2019).
